Each structure is given as a SMILES string.

The record followed here is a melting point compilation (Tetko et al.; mined from patent text by program, amines drawn as free bases though some values may be those of a salt).

`COc1cc(C=CC(=O)c2ccc(N(C)C)cc2)cc(OC)c1`: the melting point was in the range of 155 to 156 °C. Next, `COC(=O)C1=C(C)NC2=C(C(=O)OC2)C1c1ccc2c(c1)OCO2` (stereo not given): 226 to 228 °C. Next, `Cc1ccc(C(=O)[C@H]2C[C@H]2C(=O)O)cc1` (relative stereo): 165 to 166 °C; `Nc1nc(-c2ccc(Cl)cc2)cc(C2CCN(C(=O)c3ccccc3)CC2)n1`: 129 to 130 °C; `O=[N+]([O-])c1cc(Br)cc(F)c1O`: 62 °C. Next, `CCOc1cc(OCC)nc(-c2ccc(C=O)cc2)n1`: 87 to 88 °C. With `Cc1cc(Nc2cc(-c3cccc(N4Cc5cc(C(C)(C)C)ccc5C4=O)c3CO)cn(C)c2=O)nn1C`, the melting point is 225 to 227 °C.

Compound `CCc1cc2c(cc1O)CCC1C2CCC2(C)C(CCO[Si](c3ccccc3)(c3ccccc3)C(C)(C)C)CCC12` (stereo not given) came in with a melting point of 134 to 135 °C. Next, `Cc1nc(N)c(C#N)c(-c2ccco2)n1`: 317 to 320 °C; `CC(=O)C(=NNc1ccccc1)C(=O)OCC(C)C`: 45 to 50 °C. Under `COc1cc(S(=O)(=O)C(c2cc(F)ccc2F)c2cc(N)ncc2Cl)ccc1Cl` (stereo not given) stands 198 to 200 °C.

`Cc1nc(-c2ccc(C(=O)c3ccccc3)cc2)sc1C(=O)O`: the melting point is 217 to 218 °C. Next, `Nc1cc(Cl)ccc1C(=O)c1cccc(O)c1`: 137 to 138 °C; `COC(=O)[C@@H]1CCCCCOc2ccc(cc2)C[C@H](NC(=O)OCc2ccccc2)C(=O)N[C@@H](CC(C)C)C(=O)N1`: 91 to 93 °C. Under `CC(=O)Nc1ccc([N+](=O)[O-])cc1OCC(O)CN1C(=O)CCC1=O` (stereo not given) stands 157 °C; under `CC(C)Oc1cc(Oc2ccc(S(C)(=O)=O)cn2)cc2cc(C3=NCC(CCO)S3)[nH]c12` (stereo not given), 172 to 173 °C.

Take `C=CCC1CC(c2c[nH]c(-c3ccc(F)cc3)c2-c2ccncc2)=CCN1C` (stereo not given): the melting point is 178 to 180 °C. Take `COc1ccc(C2(c3ccc(OC)cc3)CCN(CC[C@H]3CN(C)[C@@H]4Cc5c[nH]c6cccc(c56)[C@@]4(OC)C3)CC2)cc1`: the melting point lay in the range of 129 to 136 °C. Next, `COCOc1cc(OCOC)cc(C(=O)O)c1`: 129 to 130 °C; `COc1c(Cl)cc(C(=O)Nc2c(Cl)cncc2Cl)c2c3ccccc3n(CC3CCCCC3)c12`: 247 to 249 °C. `Cn1nnc(-c2cn(C)c3ccccc3c2=O)n1`: the melting point was in the range of 189 to 192 °C.

Take `C(=Cc1c[nH]cn1)CC(c1ccccc1)c1ccccc1`: the melting point is > 240 °C. Take `NC(=O)Cc1cc(=O)oc2cc(OCc3cccc(Cl)c3)ccc12`: the melting point is 185 to 186 °C.

With `CCOc1ccc(Nc2cc(C)nc3cn[nH]c23)cc1`, the melting point came to 217 °C. Next, `COC(=O)c1ccccc1NC(C#N)c1ccc(Br)cc1` (stereo not given): 112 °C; `Cc1ccn2c(-c3ccnc(-c4ccc(CN5CCOCC5)cc4)c3)c(-c3cccc(C)n3)nc2c1`: 188 °C. Under `Nc1nsc2nc3ccccc3n12` stands 255 to 256 °C; under `Nc1nc(N)c(Br)c(OCc2ccccc2)n1`, 165 to 166 °C. Under `Cc1ccc(CCCOc2c(C)cc(-c3nnn(C)n3)cc2C)nn1` stands 114 to 115 °C; under `COC(=O)c1cncc(NC(=O)C(C)CS)c1` (stereo not given), 96 to 97 °C. In the case of `CCOP(=O)(CCNCc1c(N)c(=O)c1=O)OCC`, the melting point is 130 to 132 °C. Next, `CC(=O)c1csc(-c2ccncc2)c1C`: 87 to 87.5 °C. Next, `COc1cc(C(=O)N2CC3CC(C2)CN(C(C)C)C3)cc(OC)c1OC`: 67.5 to 69.5 °C; `CCOC(=O)C1C(=O)c2cc(F)ccc2N=C1c1ccccc1` (stereo not given): 277 to 279 °C; `CC1(C)CCC(C)(C)c2cc(-c3csc(C=O)c3)ccc21`: 84 to 85 °C. Next, `CCN(CC)CC1CCn2c(nc3ccccc32)S1` (stereo not given): 93 to 94 °C. In turn, `CC(C)(C)OC(=O)NCc1ccc(Nc2ncnc3[nH]cc(C(=O)c4ccccc4)c23)cc1` showed a melting point of 256 to 258 °C. Under `COc1ccc(C=CC(=O)C2C(=O)C=C(C)OC2=O)cc1` (stereo not given) stands 205 to 207 °C; under `OCc1cc(OCc2ccccc2)nn1C1CCCCC1`, 195 to 196 °C; under `O=C(O)CCc1cccc2c1NC(=O)CC2`, 164 to 165 °C. Next, `O=C(O)C(CC(=O)N1CCOCC1)Cc1cccc2ccccc12` (stereo not given): 62 to 66 °C; `COCOc1c(OC)cc(C=O)c2cccc(C)c12`: 48 to 50 °C. Next, `C=CCC1(CC=C)c2cc(-c3ncncn3)ccc2-c2ccc(N(c3ccccc3)c3ccccc3)cc21`: 235 to 237 °C; `CCOC(=O)C1=Cc2cccc(S(N)(=O)=O)c2OCC1`: 197 to 198 °C; `CC(Oc1ccc(C(=O)O)cc1)c1ccccc1OCc1ccccc1` (stereo not given): 203 to 204 °C. The compound `CCCCc1ncc(/C=C2\C(=O)NC(=O)N2Cc2cccs2)n1Cc1ccc(C(=O)OC)cc1` gave a melting point of 164 to 165 °C.

Compound `CC(Cl)(Cl)C(NC(=O)c1ccc(Cl)cc1)NC(=NC#N)Nc1ccc(C(F)(F)F)nc1` (stereo not given) registered a melting point of 204 to 205 °C. Next, `CC(=CCc1c(C)nc(N)nc1O)c1cc(Cl)ccc1Cl`: > 250 °C; `Cc1nc2c(s1)C=Cc1cc(Cl)ccc1C2c1cn(C)c(=O)[nH]c1=S` (stereo not given): 305 °C. Compound `COc1cc(C(=O)N(CCCC(=O)NCCCC(=O)O)c2c(C)cccc2C)cc(OC)c1OC` returned a melting point of 100 to 101 °C. `Nc1c(Cl)cc(C(O)CNCCCCCCOCCCCCCc2cncnc2)cc1Cl` (stereo not given) returned a melting point of 59 to 60 °C.

Take `Cc1cn(Cc2ccccc2)c(=O)n(CCCCl)c1=O`: the melting point is 48 to 50 °C. Next, `COC(=O)c1cccc([N+](=O)[O-])c1CBr`: 67 to 70 °C; `COc1cc(-c2nc(-c3ccc(N(C)C)cc3)c(C)o2)ccc1O`: 170 to 173 °C; `O=c1nc(O)ccc2ccccc12`: 129 to 131 °C.

The compound `CC1(C)CCC(C)(C)c2cc(N(CCCCOCc3ccccc3)C(=O)Nc3ccc(C(=O)O)cc3)ccc21` registered a melting point of 158 to 162 °C. Turning to `CCC(C)(C)c1cc(-c2ccc(F)c(C=C3SC(N4CCOCC4)=NC3=O)c2)ccc1O`, the melting point lay in the range of 246 to 247 °C. Under `O=C(Oc1cc(F)ccc1[N+](=O)[O-])c1cc2ccccc2oc1=O` stands 219 to 223 °C; under `CCOC(=O)c1ccc(Cn2cnc3cccnc32)cc1`, 104 to 106 °C; under `CS(=O)(=O)NCCn1c(CCO)nc2c(N)nc3cccnc3c21`, 136 to 138 °C. In the case of `NCC(O)COc1cccc2c1=NC(=O)N=2` (stereo not given), the melting point was in the range of 188 to 190 °C. Next, `Cn1c(CC(=O)O)ccc1C(=O)c1ccc(F)cc1`: 164 to 165 °C. Next, `N[C@@H](CCC(=O)NCCS(=O)(=O)O)C(=O)O`: 202 to 204 °C; `Cn1c(=O)sc2cc(N3C[C@H](C(=O)NCCO)OC3=O)ccc21`: 217 to 219 °C; `Cc1c(N2CC[C@H](NC(=O)OC(C)(C)C)C2)c(F)c(N)c2c(=O)c(C(=O)O)cn(C3CC3)c12`: 135 to 136 °C. Under `Cc1ccnc(C(=O)c2[nH]c3cc(Cl)ccc3c2NC(=O)CCl)c1` stands 224 to 225 °C. In turn, `CN1CCc2c(sc3ncn(CCCl)c(=O)c23)C1` displayed a melting point of 159 to 161 °C. The compound `O=C(Nc1ccc(-n2nc(C(F)(F)F)cc2C(F)(F)F)cc1)c1ccno1` displayed a melting point of 202 to 204 °C. Under `CCCCCCCCCCCC1=NCCN1CCO` stands 40 to 42 °C; under `COC(=O)C=Cc1ccc(Cl)c(C(F)(F)F)c1`, 71 to 73 °C; under `C[C@]1(CN2CCN(C3CCN(C(=O)OCc4ccc(OC(F)(F)F)cc4)CC3)CC2)Cn2cc([N+](=O)[O-])nc2O1`, 105 to 106 °C.

Regarding `O=C(NCCSCc1cccc(C(F)(F)F)c1)c1c(Cl)cccc1Cl`, the melting point fell in the range of 54 to 55 °C. For the compound `C[C@]12CCC(=O)N[C@@H]1CCc1cc(Sc3cccc4cccnc34)ccc12`, the melting point is > 260 °C. Next, `C[C@@H](Nc1ncnc2[nH]c(-c3cccc([N+](=O)[O-])c3)cc12)c1ccccc1`: > 250 °C. Under `Cn1cc(C(=O)NCc2ccc(Cl)cc2)c(=O)c2cc(CN3CCOCC3)cc(C#CCN3CCC(O)C3)c21` (stereo not given) stands 144 to 146 °C; under `O=C(O)CCCCCCCc1ccc(CCNC(=O)c2ccc(Cl)cc2)cc1`, 145 to 148 °C; under `C=CCS(=O)CCNC(N)=O` (stereo not given), 66 °C. Next, `CC(C(=O)O)c1ccc(-c2ccc(F)cc2F)cc1` (stereo not given): 110 to 113 °C.

`CNC(C(=O)O)c1ccc(Cl)cc1` (stereo not given) gave a melting point of 208 to 213 °C. In turn, `CNc1nc(N)nc(-c2ccc(-c3ccccc3)cc2)n1` displayed a melting point of 237 to 238 °C.

Consider `NC(=O)c1cccc(-c2c(F)ccc3cc(Cc4cccc(C(F)(F)F)c4)sc23)c1`, for which the melting point fell in the range of 166 to 167 °C. Next, `CCc1nn(CCCO)c(CC)c1Oc1cc(C#N)cc(C#N)c1`: 93 to 95 °C; `Cc1ccc(C2OC(CO)C(O)C(O)C2O)cc1Cc1ccc(-c2ccc(F)cc2)s1` (stereo not given): 106 to 107 °C. Under `Cc1cccc(C)c1-c1cccc(C(N)=O)c1` stands 123 to 125 °C.

In turn, `O=C(CBr)c1ccc(OCc2ccccc2)c([N+](=O)[O-])c1` gave a melting point of 136 °C. Next, `C=CCC(CC=C)(CC=C)c1ccc(-c2nc3cc4c(cc3n2CCC)C(=N)NC4=N)cc1`: 230 to 232 °C; `CCCCCCCCNC(=O)C(C)=Cc1cccc(N2CC(C(=O)O)CC2=O)c1` (stereo not given): 120 to 121 °C; `CCCCCC(C)(C)NC(=O)c1nn(-c2ccc(F)cc2F)c2c1C1CCC2C1` (stereo not given): 76 to 78 °C.

For the compound `CS(=O)(=O)c1ccc(C2=C(c3cccc(F)c3)C(=O)OC23CC3)cc1`, the melting point is 130 to 131 °C. Take `Cc1cc(Br)ccc1NC(=O)CC(=O)Sc1ccccc1`: the melting point is 133 to 135 °C.
